Laboratory results from patent US20230085307A1, “PYRIDAZINONE COMPOUND AND HERBICIDE” (NISSAN CHEMICAL CORPORATION, priority 2019, published 2023).

Legend:
[1] = system: wild oat; experiment: Test Example 5: herbicidal effect by foliage application, plastic box (Table 20, symbol I); format: in vivo, wild oat (Avena fatua); conditions: foliage application, AAH 320 g/ha, evaluated three weeks after application
Procedure, shortened: (§1)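 Plants sown in sterilized diluvial soil and grown 14 days in a greenhouse at 25° C to 30° C, then sprayed on the foliage with the compound's emulsion diluted in water to a predetermined herbicide amount. Injury to weeds and crops scored three weeks after application on a visual rating scale.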

[2] = system: Italian ryegrass; experiment: Test Example 4: herbicidal effect by soil treatment (Table 19, symbol K); format: in vivo, Italian ryegrass (Lolium multiflorum); conditions: amount of applied herbicide 320 g/ha
Procedure, shortened: (§2)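 Seeds were sown in sterilized diluvial soil and covered with about 1.5 cm of soil. An emulsion formulation diluted with water to a predetermined herbicide amount was sprayed evenly onto the soil surface. Plants grew in a greenhouse at 25° C. to 30° C., and the effect was scored three weeks after application using criteria from an earlier test.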

[3] = system: Japanese bulrush; experiment: Test Example 1: herbicidal activity, application before weed generation under submerged conditions (Table 16, symbol B); format: in vivo, Japanese bulrush (Schoenoplectus juncoides); conditions: 320 g/ha applied herbicide
Procedure, shortened: (§3)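 Alluvial soil was flooded to 4 cm depth, weed seeds were sown mixed and 2.5-leaf rice seedlings were transplanted. On sowing day, the compound's emulsion, diluted in water to a set dose, was applied to the water surface. Plants grew at 25–30 °C and were scored 0–5 after three weeks.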

[4] = system: Italian ryegrass; experiment: Test Example 5: herbicidal effect by foliage application, plastic box (Table 20, symbol K); format: in vivo, Italian ryegrass (Lolium multiflorum); conditions: foliage application, AAH 320 g/ha, evaluated three weeks after application
Procedure, shortened: as §1

[5] = system: southern crabgrass; experiment: Test Example 4: herbicidal effect by soil treatment (Table 19, symbol F); format: in vivo, southern crabgrass (Digitaria ciliaris); conditions: amount of applied herbicide 320 g/ha
Procedure, shortened: as §2

[6] = system: persian speedwell; experiment: Test Example 4: herbicidal effect by soil treatment (Table 19, symbol R); format: in vivo, Persian speedwell (Veronica persica); conditions: amount of applied herbicide 320 g/ha
Procedure, shortened: as §2

[7] = system: oval-leafed pondweed; experiment: Test Example 1: herbicidal activity, application before weed generation under submerged conditions (Table 16, symbol C); format: in vivo, oval-leafed pondweed (Monochoria vaginalis); conditions: 320 g/ha applied herbicide
Procedure, shortened: as §3

[8] = system: blackgrass; experiment: Test Example 4: herbicidal effect by soil treatment (Table 19, symbol J); format: in vivo, blackgrass (Alopecurus myosuroides); conditions: amount of applied herbicide 320 g/ha
Procedure, shortened: as §2

[9] = system: blackgrass; experiment: Test Example 5: herbicidal effect by foliage application, plastic box (Table 20, symbol J); format: in vivo, blackgrass (Alopecurus myosuroides); conditions: foliage application, AAH 320 g/ha, evaluated three weeks after application
Procedure, shortened: as §1

[10] = system: late watergrass; experiment: Test Example 1: herbicidal activity, application before weed generation under submerged conditions (Table 16, symbol A); format: in vivo, late watergrass (Echinochloa oryzicola); conditions: 320 g/ha applied herbicide
Procedure, shortened: as §3

[11] = system: chickweed; experiment: Test Example 4: herbicidal effect by soil treatment (Table 19, symbol P); format: in vivo, common chickweed (Stellaria media); conditions: amount of applied herbicide 320 g/ha
Procedure, shortened: as §2

[12] = system: rice flat sedge; experiment: Test Example 3: herbicidal effect by foliage application, Wagner pot (Table 18, symbol E); format: in vivo, rice flat sedge (Cyperus iria); conditions: amount of applied herbicide 320 g/ha
Procedure, shortened: (§4)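 Plants were sown in alluvial soil held under 0.1–0.5 cm standing water and grown 14 days in a greenhouse at 25–30 °C. An emulsifiable formulation, water-diluted to the set dose, was then sprayed onto the foliage, and effects were scored three weeks later using previously defined criteria.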

[13] = system: southern crabgrass; experiment: Test Example 5: herbicidal effect by foliage application, plastic box (Table 20, symbol F); format: in vivo, southern crabgrass (Digitaria ciliaris); conditions: foliage application, AAH 320 g/ha, evaluated three weeks after application
Procedure, shortened: as §1

[14] = system: chickweed; experiment: Test Example 5: herbicidal effect by foliage application, plastic box (Table 20, symbol P); format: in vivo, common chickweed (Stellaria media); conditions: foliage application, AAH 320 g/ha, evaluated three weeks after application
Procedure, shortened: as §1

[15] = system: velvetleaf; experiment: Test Example 4: herbicidal effect by soil treatment (Table 19, symbol M); format: in vivo, velvetleaf (Abutilon theophrasti); conditions: amount of applied herbicide 320 g/ha
Procedure, shortened: as §2

[16] = system: barnyard grass; experiment: Test Example 3: herbicidal effect by foliage application, Wagner pot (Table 18, symbol H); format: in vivo, barnyard grass (Echinochloa crus-galli); conditions: amount of applied herbicide 320 g/ha
Procedure, shortened: as §4

[17] = system: lambsquarters; experiment: Test Example 5: herbicidal effect by foliage application, plastic box (Table 20, symbol O); format: in vivo, lambsquarters (Chenopodium album); conditions: foliage application, AAH 320 g/ha, evaluated three weeks after application
Procedure, shortened: as §1

[18] = system: barnyard grass; experiment: Test Example 5: herbicidal effect by foliage application, plastic box (Table 20, symbol H); format: in vivo, barnyard grass (Echinochloa crus-galli); conditions: foliage application, AAH 320 g/ha, evaluated three weeks after application
Procedure, shortened: as §1

[19] = system: redroot pigweed; experiment: Test Example 5: herbicidal effect by foliage application, plastic box (Table 20, symbol N); format: in vivo, redroot pigweed (Amaranthus retroflexus); conditions: foliage application, AAH 320 g/ha, evaluated three weeks after application
Procedure, shortened: as §1

[20] = system: windgrass; experiment: Test Example 4: herbicidal effect by soil treatment (Table 19, symbol L); format: in vivo, windgrass (Apera spica-venti); conditions: amount of applied herbicide 320 g/ha
Procedure, shortened: as §2

[21] = system: velvetleaf; experiment: Test Example 5: herbicidal effect by foliage application, plastic box (Table 20, symbol M); format: in vivo, velvetleaf (Abutilon theophrasti); conditions: foliage application, AAH 320 g/ha, evaluated three weeks after application
Procedure, shortened: as §1

[22] = system: redroot pigweed; experiment: Test Example 4: herbicidal effect by soil treatment (Table 19, symbol N); format: in vivo, redroot pigweed (Amaranthus retroflexus); conditions: amount of applied herbicide 320 g/ha
Procedure, shortened: as §2

[23] = system: lambsquarters; experiment: Test Example 4: herbicidal effect by soil treatment (Table 19, symbol O); format: in vivo, lambsquarters (Chenopodium album); conditions: amount of applied herbicide 320 g/ha
Procedure, shortened: as §2

[24] = system: green foxtail; experiment: Test Example 4: herbicidal effect by soil treatment (Table 19, symbol G); format: in vivo, green foxtail (Setaria viridis); conditions: amount of applied herbicide 320 g/ha
Procedure, shortened: as §2

[25] = system: barnyard grass; experiment: Test Example 4: herbicidal effect by soil treatment (Table 19, symbol H); format: in vivo, barnyard grass (Echinochloa crus-galli); conditions: amount of applied herbicide 320 g/ha
Procedure, shortened: as §2

[26] = system: windgrass; experiment: Test Example 5: herbicidal effect by foliage application, plastic box (Table 20, symbol L); format: in vivo, windgrass (Apera spica-venti); conditions: foliage application, AAH 320 g/ha, evaluated three weeks after application
Procedure, shortened: as §1

[27] = system: green foxtail; experiment: Test Example 5: herbicidal effect by foliage application, plastic box (Table 20, symbol G); format: in vivo, green foxtail (Setaria viridis); conditions: foliage application, AAH 320 g/ha, evaluated three weeks after application
Procedure, shortened: as §1

[28] = system: wild oat; experiment: Test Example 4: herbicidal effect by soil treatment (Table 19, symbol I); format: in vivo, wild oat (Avena fatua); conditions: amount of applied herbicide 320 g/ha
Procedure, shortened: as §2

[29] = system: persian speedwell; experiment: Test Example 5: herbicidal effect by foliage application, plastic box (Table 20, symbol R); format: in vivo, Persian speedwell (Veronica persica); conditions: foliage application, AAH 320 g/ha, evaluated three weeks after application
Procedure, shortened: as §1

[30] = system: Chinese sprangletop; experiment: Test Example 3: herbicidal effect by foliage application, Wagner pot (Table 18, symbol D); format: in vivo, chinese sprangletop (Leptochloa chinensis); conditions: amount of applied herbicide 320 g/ha
Procedure, shortened: as §4

## Cc1nn(C)c(=O)c(-c2c(-c3ccc([S+](C)[O-])cc3)sc3ccc(F)cc23)c1O (stereo not drawn) [2-256]
[1]
  I: wild oat, herbicidal effect (criteria 0-5): 5 (Herbicidal rate of 90% or more (almost completely withered))
[2]
  herbicidal effect on K: Italian ryegrass: 3 (Herbicidal rate of 40% or more and less than 70%)
[3]
  Herbicidal effect on B: Japanese bulrush (grade 0-5): 0 (Herbicidal rate of 5% or less (almost no effect))
[4]
  K: Italian ryegrass, herbicidal effect (criteria 0-5): 5 (Herbicidal rate of 90% or more (almost completely withered))
[5]
  herbicidal effect on F: southern crabgrass: 0 (Herbicidal rate of 5% or less (almost no effect))
[6]
  herbicidal effect on R: persian speedwell: 4 (Herbicidal rate of 70% or more and less than 90%)
[7]
  Herbicidal effect on C: oval-leafed pondweed (grade 0-5): 0 (Herbicidal rate of 5% or less (almost no effect))
[8]
  herbicidal effect on J: blackgrass: 0 (Herbicidal rate of 5% or less (almost no effect))
[9]
  J: blackgrass, herbicidal effect (criteria 0-5): 3 (Herbicidal rate of 40% or more and less than 70%)
[10]
  Herbicidal effect on A: late watergrass (grade 0-5): 2 (Herbicidal rate of 20% or more and less than 40%)
[11]
  herbicidal effect on P: chickweed: 3 (Herbicidal rate of 40% or more and less than 70%)
[12]
  herbicidal effect on E: rice flat sedge: 4 (Herbicidal rate of 70% or more and less than 90%)
[13]
  F: southern crabgrass, herbicidal effect (criteria 0-5): 4 (Herbicidal rate of 70% or more and less than 90%)
[14]
  P: chickweed, herbicidal effect (criteria 0-5): 5 (Herbicidal rate of 90% or more (almost completely withered))
[15]
  herbicidal effect on M: velvetleaf: 0 (Herbicidal rate of 5% or less (almost no effect))
[16]
  herbicidal effect on H: barnyard grass: 5 (Herbicidal rate of 90% or more (almost completely withered))
[17]
  O: lambsquarters, herbicidal effect (criteria 0-5): 5 (Herbicidal rate of 90% or more (almost completely withered))
[18]
  H: barnyard grass, herbicidal effect (criteria 0-5): 1 (Herbicidal rate of 5% or more and less than 20%)
[19]
  N: redroot pigweed, herbicidal effect (criteria 0-5): 5 (Herbicidal rate of 90% or more (almost completely withered))
[20]
  herbicidal effect on L: windgrass: 0 (Herbicidal rate of 5% or less (almost no effect))
[21]
  M: velvetleaf, herbicidal effect (criteria 0-5): 4 (Herbicidal rate of 70% or more and less than 90%)
[22]
  herbicidal effect on N: redroot pigweed: 3 (Herbicidal rate of 40% or more and less than 70%)
[23]
  herbicidal effect on O: lambsquarters: 0 (Herbicidal rate of 5% or less (almost no effect))
[24]
  herbicidal effect on G: green foxtail: 0 (Herbicidal rate of 5% or less (almost no effect))
[25]
  herbicidal effect on H: barnyard grass: 0 (Herbicidal rate of 5% or less (almost no effect))
[26]
  L: windgrass, herbicidal effect (criteria 0-5): 5 (Herbicidal rate of 90% or more (almost completely withered))
[27]
  G: green foxtail, herbicidal effect (criteria 0-5): 3 (Herbicidal rate of 40% or more and less than 70%)
[28]
  herbicidal effect on I: wild oat: 1 (Herbicidal rate of 5% or more and less than 20%)
[29]
  R: persian speedwell, herbicidal effect (criteria 0-5): 5 (Herbicidal rate of 90% or more (almost completely withered))
[30]
  herbicidal effect on D: Chinese sprangletop: 4 (Herbicidal rate of 70% or more and less than 90%)
